SMILES strings stand for the structures. Calls of active or inactive are those of the source. The rule behind the calls is not given here.

The first assay has as its target Ras-related protein Rab7 wild type (dog). Kind of assay: blockers of fluorescent GTP uptake by Rab7 – biochemical, dog Rab7, bead multiplex flow cytometry, round 2, SAR follow-up (AID 588631). The conditions noted are these: Bead-based multiplex flow cytometry, at 100 µM (top of the series). Background: In flow cytometry, cells or beads pass a laser one at a time.
`CC(C)(C)C1Cc2c(sc(NC(=S)NC(=O)c3ccccc3)c2C(=O)O)CO1` (stereo not given): the “percent response (remaining binding)” value was “inactive”. For the molecule `CC1(C)Cc2c(sc(NC(=S)Nc3ccccc3)c2C(=O)O)CO1`, the “percent response (remaining binding)” value is “inactive”.

Staying with this assay, now noted: Bead-based multiplex flow cytometry, fluorescent GTP binding.
As usually defined, the EC50 is the midpoint of the concentration-response curve. As for `CC1(C)Cc2c(sc(NC(=S)NC(=O)c3cccs3)c2C(=O)O)CO1`, the EC50 is 25 nM.

With `Cc1ccc(C(=O)NC(=S)Nc2sc3c(c2C(=O)O)CC(C)(C)OC3)cc1`, the EC50 was 135 nM.

Consider `O=C(NC(=S)Nc1sc2c(c1C(=O)O)CC1(CCCC1)OC2)c1ccccc1`, for which the EC50 is 35 nM. For the molecule `CCC1(C)Cc2c(sc(NC(=S)NC(=O)c3ccccc3)c2C(=O)O)CO1` (stereo not given), the 50% effective concentration (EC50) is 37 nM. Still for that read-out and setting: in the case of `CC1(C)Cc2c(sc(NC(=S)NC(=O)C3CCCCC3)c2C(=O)O)CO1` it was 809 nM. On the same count and under the same terms, in the case of `CC1(C)Cc2c(sc(NC(=S)NC(=O)c3ccccc3F)c2C(=O)O)CO1` it was 318 nM; in that of `CC1(C)Cc2c(sc(NC(=S)NC(=O)c3ccc(Br)cc3)c2C(=O)O)CO1`, 496 nM.

With `CC1(C)CCc2sc(NC(=S)NC(=O)c3ccccc3)c(C(=O)O)c2C1`, the EC50 was 46 nM. As for `COc1cccc(C(=O)NC(=S)Nc2sc3c(c2C(=O)O)CC(C)(C)OC3)c1`, the EC50 was 295 nM. On the same count and under the same terms, the figure for `COc1ccc(C(=O)NC(=S)Nc2sc3c(c2C(=O)O)CC(C)(C)OC3)cc1` is 221 nM. Regarding `Cc1cccc(C(=O)NC(=S)Nc2sc3c(c2C(=O)O)CC(C)(C)OC3)c1`, the EC50 is 1160 nM.

Regarding `CC1(C)Cc2c(sc(NC(=S)NC(=O)c3cccc(F)c3)c2C(=O)O)CO1`, the EC50 was 415 nM. Consider `CC1(C)Cc2c(sc(NC(=S)NC(=O)c3ccccc3Br)c2C(=O)O)CO1`, for which the EC50 is 1210 nM.

Consider `CC1(C)Cc2c(sc(NC(=S)NC(=O)c3cccc(Br)c3)c2C(=O)O)CO1`, for which the EC50 is 3990 nM. On the same count and under the same terms, in the case of `CC1(C)Cc2c(sc(NC(=S)NC(=O)c3ccco3)c2C(=O)O)CO1` it was 74 nM; in that of `COc1ccccc1C(=O)NC(=S)Nc1sc2c(c1C(=O)O)CC(C)(C)OC2`, 1120 nM. Still for that read-out and setting: in the case of `Cc1ccccc1C(=O)NC(=S)Nc1sc2c(c1C(=O)O)CC(C)(C)OC2` it was 411 nM; in that of `CC1(C)Cc2c(sc(NC(=S)NC(=O)c3ccc(F)cc3)c2C(=O)O)CO1`, 95 nM.

The record behind these values is PubChem BioAssay AID588631 (NMMLSC, 2011).
